Experimental data taken from US4459291A, “Compounds having antibiotic activity, processes for their preparation, pharmaceutical compositions containing them and their use as medicaments” (priority 1981, dated 1984).
Values after ≈ are worked out from the molar mass of the structure shown. “Also recorded” adds a separate entry of the source. Read-outs that look alike come from different tables or passages of the source.

How the values were obtained:
[1] = tested on: Staphylococcus aureus ATCC 6538P; test: Antibacterial activity by agar dilution method at pH 7.0; format: cell-based; settings: ATCC6538P
[2] = tested on: Klebsiella pneumoniae ATCC 10031; test: as above; format: cell-based
Solubility = settings: solvents named in the value
Escherichia coli ATCC 26 = test: Antibacterial activity by agar dilution method at pH 7.0; format: cell-based
LD50 (acute toxicity) = settings: in vivo
[3] = tested on: Bacillus subtilis No. 10707; test: Antibacterial activity by agar dilution method at pH 7.0; format: cell-based
[4] = tested on: Salmonella typhosa ATCC 9992; test: as above; format: cell-based; settings: Salmonella enterica

Row | SMILES | MIC ([1]; Staphylococcus aureus, pH 7, read-out: Minimum Inhibitory Concentration) | MIC ([2]; Klebsiella pneumoniae, ATCC10031, pH 7, read-out: Minimum Inhibitory Concentration) | Solubility (Solubility) | MIC (Escherichia coli ATCC 26; Escherichia coli, ATCC26, pH 7, read-out: Minimum Inhibitory Concentration) | LD50 (LD50 (acute toxicity); ip) | LD50 (LD50 (acute toxicity); iv) | MIC ([3]; Bacillus subtilis, NO.10707, pH 7, read-out: Minimum Inhibitory Concentration) | MIC ([4]; pH 7, read-out: Minimum Inhibitory Concentration) | MIC ([1]; Staphylococcus aureus ATCC 6538P, agar dilution, pH 7.0, read-out: Minimum Inhibitory Concentration) | MIC ([2]; ATCC10031, Klebsiella pneumoniae ATCC 10031, agar dilution, pH 7.0, read-out: Minimum Inhibitory Concentration) | MIC (Escherichia coli ATCC 26; ATCC26, Escherichia coli ATCC 26, agar dilution, pH 7.0, read-out: Minimum Inhibitory Concentration) | MIC ([3]; Bacillus subtilis No. 10707, agar dilution, pH 7.0, read-out: Minimum Inhibitory Concentration) | MIC ([4]; Salmonella typhosa ATCC 9992, agar dilution, pH 7.0, read-out: Minimum Inhibitory Concentration)
1 | COc1c2c(c(O)c3c4c(c(C)cc13)C1OC3(C(OC)OC)OC1C(O)(O4)C31CO1)C(=O)C(O)CC2OC1CC(C)(O)C(OC(C)=O)C(C)O1 (stereo not shown) [DC-45-A1] | 0.4 µg/mL (≈ 0.568 µM) | 0.4 µg/mL (≈ 0.568 µM) | Soluble in methanol, ethanol, acetone, ethyl acetate and chloroform; also recorded: soluble with difficulty in benzene and aqueous ether; also recorded: insoluble in n-hexane | 12 µg/mL (≈ 17 µM) | 0.375 mg/kg | 0.375 mg/kg | 0.04 µg/mL (≈ 0.0568 µM) | 50 µg/mL (≈ 71 µM) | – | – | – | – | –
2 | COc1c2c(c(O)c3c4c(c(C)cc13)C1OC3(C(OC)OC)OC1C(O)(O4)C31CO1)C(=O)C(O)CC2O (stereo not shown) [DC-45-A2] | – | – | Soluble in methanol, ethanol, acetone, ethyl acetate and chloroform; also recorded: soluble with difficulty in benzene, ether and water; also recorded: insoluble in n-hexane | – | 5.8 mg/kg | 14 mg/kg | – | – | 100 µg/mL (≈ 193 µM) | 12 µg/mL (≈ 23.1 µM) | 25 µg/mL (≈ 48.2 µM) | 100 µg/mL (≈ 193 µM) | 50 µg/mL (≈ 96.4 µM)
